Data from US20250263370A1 (Tay Therapeutics Limited, priority 2022, published 2025).
Values joined by “and” are separate entries in the source; they are usually repeats but may differ in a detail not shown here. Equal values may be shown once. “Also recorded” adds a separate entry of the source.

Test system: collagen-induced arthritis
Test: Collagen-induced arthritis (CIA) model in rats: body weight, paw volume, clinical scores, clinical observations; for Average detailed clinical score, left hind limb: key of the grades not given here; for Average detailed clinical score, right hind limb: key of the grades not given here; for Detailed Clinical Scores, left forelimb: key of the grades not given here; for Detailed Clinical Scores, left hind limb: key of the grades not given here; for Detailed Clinical Scores, right forelimb: key of the grades not given here; for Detailed Clinical Scores, right hind limb: key of the grades not given here; for Detailed Clinical Scores, score: key of the grades not given here; for Mean overall clinical score ± SD: key of the grades not given here; for Overall clinical score: key of the grades not given here
Conditions: for Mean animal paw volume ± SD: group mean; for Overall clinical score: individual animals #1-8; for Detailed Clinical Scores, left forelimb / Detailed Clinical Scores, left hind limb / Detailed Clinical Scores, right forelimb / Detailed Clinical Scores, right hind limb / Detailed Clinical Scores, score: individual animals ID 1-8
Protocol: Prior to be randomly placed in treatment groups, animals were weighed, and paw volume was measured. Once randomly assigned to treatment groups, on Day 0, animals in groups 2-9 were immunized by subcutaneous injection at the base of the tail.
The immunization comprised 100 μL of the CFA+Collagen emulsion (prepared according to the method in Experimental Method A). Animals in group one received no immunization. Seven days after the first injection, animals in groups 2-9 received a booster immunization comprising 200 μL of the IFA+Collagen emulsion (prepared according to the method in Experimental Method A).
Starting on Day 0, animals in group 1 and 2 were administered daily doses of the vehicle per os (P.O.) for 21 days. […] The twice daily doses for animals in groups 4-9 were 8 hours apart (e.g., the first dose at 8:00 AM and the second dose at 4:00 PM).
Body weight of all animals was recorded daily for the 21-day period. Blind clinical scores on all four limbs were conducted for all animals in the study. Animals were assessed prior to receiving their first dose of the compound or control, and scores for each limb were combined to a total daily score for each animal. Clinical score assessments were performed on Day 0, 6, 12, 13, 14, 15, 18, 19, and 21 (for a total of 9 daily scores).
Paw volume was recorded for each animal on Day 0, 6, 12, 13, 14, 15, 18, 19, and 21 (for a total of 9 measurements). To measure paw volume, animals were gently held with one hand while the hind paw was placed into a plethysmometer with the other hand. Lipid displacement by the paw was recorded and used to represent paw volume.
All data measured and recorded was analyzed using SPSS 16.0 software. Groups were compared using one-way ANOVA and significance was set at p<0.05.

CNC(=O)c1[nH]c(C(=O)NC2CCC2)cc1O[C@@H](C)c1ccccc1 (stereo in doubt) [Example 101, N^5-cyclobutyl-N^2-methyl-3-(1-phenylethoxy)-1H-pyrrole-2,5-dicarboxamide]
Animal paw volume Day 0 L (CIA rats, 30 mg/kg, Day 0, left paw, individual animals): 1.33 mL (2×) and 1.32 mL (3×) and 1.31 mL and 1.30 mL and 1.34 mL
Average animal paw volume percent change (CIA rats, 30 mg/kg, Day 0, right hind paw (R)): 0.00%
Animal paw volume Day 0 R (CIA rats, 30 mg/kg, Day 0, right paw, individual animals): 1.34 mL (2×) and 1.31 mL (2×) and 1.33 mL and 1.30 mL and 1.32 mL (2×)
Average animal paw volume percent change (CIA rats, 30 mg/kg, Day 6, left hind paw (L)): 0.76%
Animal paw volume Day 6 L (CIA rats, 30 mg/kg, Day 6, left paw, individual animals): 1.35 mL and 1.33 mL (3×) and 1.32 mL (3×) and 1.34 mL
Average animal paw volume percent change (CIA rats, 30 mg/kg, Day 6, right hind paw (R)): 0.75%
Animal paw volume Day 6 R (CIA rats, 30 mg/kg, Day 6, right paw, individual animals): 1.36 mL and 1.32 mL (2×) and 1.31 mL and 1.34 mL (2×) and 1.33 mL (2×)
Average animal paw volume percent change (CIA rats, 30 mg/kg, Day 12, left hind paw (L)): 1.33%
Animal paw volume Day 12 L (CIA rats, 30 mg/kg, Day 12, left paw, individual animals): 1.36 mL (2×) and 1.34 mL (2×) and 1.31 mL and 1.33 mL and 1.32 mL and 1.35 mL
Average animal paw volume percent change (CIA rats, 30 mg/kg, Day 12, right hind paw (R)): 2.87%
Animal paw volume Day 12 R (CIA rats, 30 mg/kg, Day 12, right paw, individual animals): 1.50 mL and 1.36 mL and 1.33 mL (4×) and 1.34 mL and 1.35 mL
Average animal paw volume percent change (CIA rats, 30 mg/kg, Day 13, left hind paw (L)): 2.76%
Animal paw volume Day 13 L (CIA rats, 30 mg/kg, Day 13, left paw, individual animals): 1.40 mL and 1.36 mL (2×) and 1.33 mL and 1.34 mL (2×) and 1.38 mL and 1.35 mL
Average animal paw volume percent change (CIA rats, 30 mg/kg, Day 13, right hind paw (R)): 4.15%
Animal paw volume Day 13 R (CIA rats, 30 mg/kg, Day 13, right paw, individual animals): 1.54 mL and 1.38 mL and 1.34 mL (2×) and 1.36 mL (3×) and 1.33 mL
Average animal paw volume percent change (CIA rats, 30 mg/kg, Day 14, left hind paw (L)): 2.39%
Animal paw volume Day 14 L (CIA rats, 30 mg/kg, Day 14, left paw, individual animals): 1.40 mL and 1.35 mL (2×) and 1.32 mL and 1.37 mL (2×) and 1.36 mL and 1.30 mL
Average animal paw volume percent change (CIA rats, 30 mg/kg, Day 14, right hind paw (R)): 3.83%
Animal paw volume Day 14 R (CIA rats, 30 mg/kg, Day 14, right paw, individual animals): 1.53 mL and 1.37 mL and 1.35 mL (2×) and 1.36 mL (3×) and 1.28 mL
Average animal paw volume percent change (CIA rats, 30 mg/kg, Day 15, left hind paw (L)): 10.45%
Animal paw volume Day 15 L (CIA rats, 30 mg/kg, Day 15, left paw, individual animals): 1.46 mL and 1.79 mL and 1.57 mL and 1.38 mL (2×) and 1.34 mL and 1.44 mL and 1.31 mL
Average animal paw volume percent change (CIA rats, 30 mg/kg, Day 15, right hind paw (R)): 12.13%
Animal paw volume Day 15 R (CIA rats, 30 mg/kg, Day 15, right paw, individual animals): 1.52 mL and 1.37 mL and 1.68 mL and 1.38 mL and 1.49 mL and 1.36 mL and 1.73 mL and 1.30 mL
Average animal paw volume percent change (CIA rats, 30 mg/kg, Day 18, left hind paw (L)): 29.38%
Animal paw volume Day 18 L (CIA rats, 30 mg/kg, Day 18, left paw, individual animals): 1.46 mL and 2.05 mL and 1.90 mL and 1.47 mL (2×) and 1.68 mL and 1.93 mL and 1.70 mL
Average animal paw volume percent change (CIA rats, 30 mg/kg, Day 18, right hind paw (R)): 23.54%
Animal paw volume Day 18 R (CIA rats, 30 mg/kg, Day 18, right paw, individual animals): 1.51 mL and 1.87 mL and 1.86 mL and 1.37 mL and 1.48 mL and 1.32 mL and 1.95 mL and 1.68 mL
Average animal paw volume percent change (CIA rats, 30 mg/kg, Day 19, left hind paw (L)): 33.52%
Animal paw volume Day 19 L (CIA rats, 30 mg/kg, Day 19, left paw, individual animals): 1.42 mL and 2.04 mL and 2.06 mL and 1.56 mL and 1.55 mL and 1.85 mL and 1.94 mL and 1.67 mL
Average animal paw volume percent change (CIA rats, 30 mg/kg, Day 19, right hind paw (R)): 32.36%
Animal paw volume Day 19 R (CIA rats, 30 mg/kg, Day 19, right paw, individual animals): 1.44 mL and 1.96 mL and 2.14 mL and 1.39 mL and 1.48 mL and 1.83 mL and 2.04 mL and 1.69 mL
Average animal paw volume percent change (CIA rats, 30 mg/kg, Day 21, left hind paw (L)): 37.92%
Animal paw volume Day 21 L (CIA rats, 30 mg/kg, Day 21, left paw, individual animals): 1.43 mL and 2.08 mL and 2.11 mL and 1.54 mL (2×) and 2.06 mL and 2.13 mL and 1.67 mL
Average animal paw volume percent change (CIA rats, 30 mg/kg, Day 21, right hind paw (R)): 36.08%
Animal paw volume Day 21 R (CIA rats, 30 mg/kg, Day 21, right paw, individual animals): 1.43 mL and 2.10 mL and 2.16 mL and 1.40 mL and 1.47 mL and 2.00 mL and 2.12 mL and 1.67 mL
overall effect on joint inflammation and clinical symptoms of CIA (CIA rats, 3, 10 and 30 mg/kg twice daily P.O. (groups 5-7)): ameliorated joint inflammation in a dose-dependent manner; also recorded: lower clinical scores; also recorded: dose-dependent effect in the amelioration of clinical symptoms associated with CIA; also recorded: function in a dose-dependent manner to limit and/or reduce the severity of CIA-related symptoms
Mean animal paw volume ± SD (Day 0, L paw, 3 mg/kg): 1.33 mL
Mean animal paw volume ± SD (Day 0, L paw, 10 mg/kg): 1.31 mL
Mean animal paw volume ± SD (Day 0, L paw, 30 mg/kg): 1.32 mL
Mean animal paw volume ± SD (Day 0, R paw, 3 mg/kg): 1.33 mL
Mean animal paw volume ± SD (Day 0, R paw, 10 mg/kg): 1.31 mL
Mean animal paw volume ± SD (Day 0, R paw, 30 mg/kg): 1.32 mL
Average detailed clinical score, left forelimb (Day 0, CIA rats, 3 mg/kg): 0.00
Average detailed clinical score, left hind limb (Day 0, CIA rats, 3 mg/kg): 0.00
Average detailed clinical score, right forelimb (Day 0, CIA rats, 3 mg/kg): 0.00
Average detailed clinical score, right hind limb (Day 0, CIA rats, 3 mg/kg): 0.00
Average detailed clinical score, score (Day 0, CIA rats, 3 mg/kg): 0.00
Mean overall clinical score ± SD (Day 0, CIA rats, 3 mg/kg): 0 ± 0
Overall clinical score (Day 0, CIA rats, 3 mg/kg): 0
Average detailed clinical score, left forelimb (Day 0, CIA rats, 10 mg/kg): 0.00
Average detailed clinical score, left hind limb (Day 0, CIA rats, 10 mg/kg): 0.00
Average detailed clinical score, right forelimb (Day 0, CIA rats, 10 mg/kg): 0.00
Average detailed clinical score, right hind limb (Day 0, CIA rats, 10 mg/kg): 0.00
Average detailed clinical score, score (Day 0, CIA rats, 10 mg/kg): 0.00
Mean overall clinical score ± SD (Day 0, CIA rats, 10 mg/kg): 0 ± 0
Overall clinical score (Day 0, CIA rats, 10 mg/kg): 0
Average detailed clinical score, left forelimb (Day 0, CIA rats, 30 mg/kg): 0.00
Average detailed clinical score, left hind limb (Day 0, CIA rats, 30 mg/kg): 0.00
Average detailed clinical score, right forelimb (Day 0, CIA rats, 30 mg/kg): 0.00
Average detailed clinical score, right hind limb (Day 0, CIA rats, 30 mg/kg): 0.00
Average detailed clinical score, score (Day 0, CIA rats, 30 mg/kg): 0.00
Mean overall clinical score ± SD (Day 0, CIA rats, 30 mg/kg): 0 ± 0
Mean animal paw volume ± SD (Day 6, L paw, 3 mg/kg): 1.34 mL
Mean animal paw volume ± SD (Day 6, L paw, 10 mg/kg): 1.32 mL
Mean animal paw volume ± SD (Day 6, L paw, 30 mg/kg): 1.33 mL
Mean animal paw volume ± SD (Day 6, R paw, 3 mg/kg): 1.35 mL
Mean animal paw volume ± SD (Day 6, R paw, 10 mg/kg): 1.32 mL
Mean animal paw volume ± SD (Day 6, R paw, 30 mg/kg): 1.33 mL
Average detailed clinical score, left forelimb (Day 6, CIA rats, 3 mg/kg): 0.00
Average detailed clinical score, left hind limb (Day 6, CIA rats, 3 mg/kg): 0.00
Average detailed clinical score, right forelimb (Day 6, CIA rats, 3 mg/kg): 0.00
Average detailed clinical score, right hind limb (Day 6, CIA rats, 3 mg/kg): 0.00
Average detailed clinical score, score (Day 6, CIA rats, 3 mg/kg): 0.00
Mean overall clinical score ± SD (Day 6, CIA rats, 3 mg/kg): 0 ± 0
Overall clinical score (Day 6, CIA rats, 3 mg/kg): 0
Average detailed clinical score, left forelimb (Day 6, CIA rats, 10 mg/kg): 0.00
Average detailed clinical score, left hind limb (Day 6, CIA rats, 10 mg/kg): 0.00
Average detailed clinical score, right forelimb (Day 6, CIA rats, 10 mg/kg): 0.00
Average detailed clinical score, right hind limb (Day 6, CIA rats, 10 mg/kg): 0.00
Average detailed clinical score, score (Day 6, CIA rats, 10 mg/kg): 0.00
Mean overall clinical score ± SD (Day 6, CIA rats, 10 mg/kg): 0 ± 0
Overall clinical score (Day 6, CIA rats, 10 mg/kg): 0
Average detailed clinical score, left forelimb (Day 6, CIA rats, 30 mg/kg): 0.00
Average detailed clinical score, left hind limb (Day 6, CIA rats, 30 mg/kg): 0.00
Average detailed clinical score, right forelimb (Day 6, CIA rats, 30 mg/kg): 0.00
Average detailed clinical score, right hind limb (Day 6, CIA rats, 30 mg/kg): 0.00
Average detailed clinical score, score (Day 6, CIA rats, 30 mg/kg): 0.00
Mean overall clinical score ± SD (Day 6, CIA rats, 30 mg/kg): 0 ± 0
Mean animal paw volume ± SD (Day 12, L paw, 3 mg/kg): 1.41 mL
Mean animal paw volume ± SD (Day 12, L paw, 10 mg/kg): 1.41 mL
Mean animal paw volume ± SD (Day 12, L paw, 30 mg/kg): 1.33 mL
Mean animal paw volume ± SD (Day 12, R paw, 3 mg/kg): 1.40 mL
Mean animal paw volume ± SD (Day 12, R paw, 10 mg/kg): 1.41 mL
Mean animal paw volume ± SD (Day 12, R paw, 30 mg/kg): 1.36 mL
Detailed Clinical Scores, left forelimb (Day 12, 3 mg/kg, CIA rats): 0
Detailed Clinical Scores, left hind limb (Day 12, 3 mg/kg, CIA rats): 0 (7×) and 1
Detailed Clinical Scores, right forelimb (Day 12, 3 mg/kg, CIA rats): 0 (6×) and 1 (2×)
Detailed Clinical Scores, right hind limb (Day 12, 3 mg/kg, CIA rats): 0
Detailed Clinical Scores, score (Day 12, 3 mg/kg, CIA rats): 0 (5×) and 1 (3×)
Detailed Clinical Scores, left forelimb (Day 12, 10 mg/kg, CIA rats): 0
Detailed Clinical Scores, left hind limb (Day 12, 10 mg/kg, CIA rats): 1 (2×) and 0 (6×)
Detailed Clinical Scores, right forelimb (Day 12, 10 mg/kg, CIA rats): 0
Detailed Clinical Scores, right hind limb (Day 12, 10 mg/kg, CIA rats): 0 (7×) and 2
Detailed Clinical Scores, score (Day 12, 10 mg/kg, CIA rats): 1 (2×) and 0 (5×) and 2
Detailed Clinical Scores, left forelimb (Day 12, 30 mg/kg, CIA rats): 0
Detailed Clinical Scores, left hind limb (Day 12, 30 mg/kg, CIA rats): 0
Detailed Clinical Scores, right forelimb (Day 12, 30 mg/kg, CIA rats): 0
Detailed Clinical Scores, right hind limb (Day 12, 30 mg/kg, CIA rats): 1 and 0 (7×)
Detailed Clinical Scores, score (Day 12, 30 mg/kg, CIA rats): 1 and 0 (7×)
Average detailed clinical score, left forelimb (Day 12, CIA rats, 3 mg/kg): 0.00
Average detailed clinical score, left hind limb (Day 12, CIA rats, 3 mg/kg): 0.13
Average detailed clinical score, right forelimb (Day 12, CIA rats, 3 mg/kg): 0.25
Average detailed clinical score, right hind limb (Day 12, CIA rats, 3 mg/kg): 0.00
Average detailed clinical score, score (Day 12, CIA rats, 3 mg/kg): 0.38
Mean overall clinical score ± SD (Day 12, CIA rats, 3 mg/kg): 0 ± 1
Overall clinical score (Day 12, CIA rats, 3 mg/kg): 0 (5×) and 1 (3×)
Average detailed clinical score, left forelimb (Day 12, CIA rats, 10 mg/kg): 0.00
Average detailed clinical score, left hind limb (Day 12, CIA rats, 10 mg/kg): 0.25
Average detailed clinical score, right forelimb (Day 12, CIA rats, 10 mg/kg): 0.00
